Experimental data taken from patent US20220401481A1, “DOSING REGIMENS FOR THE MOBILIZATION OF HEMATOPOIETIC STEM AND PROGENITOR CELLS” (Magenta Therapeutics, Inc., priority 2019, published 2022).
Where “and” joins values, the source holds several entries; their conditions need not be identical. Equal entries are not always repeated. Where two headings read alike, the source gives them in different places.

How the values were obtained:
[1] = system: CD34+ cells; details: historical plerixafor alone data, Devine et al., Blood 2008 (n=25); cited from earlier work
[2] = system: CD34+ cells; assay: Phase 1 clinical trial: mobilization of CD34+ cells into peripheral blood (multicolor flow cytometry); details: for % ≥40/μL: plerixafor
[3] = system: T cells, B cells and NK cells; details: cited from earlier work
[4] = system: CD34+CD90+CD45RA− cells; assay: Phase 1 clinical trial: mobilization of CD34+CD90+CD45RA− cells into peripheral blood (flow cytometry)
[5] = system: hematopoietic stem and progenitor cell mobilization; details: cited from earlier work
[6] = system: neutrophils; assay: Phase 1 clinical trial: mobilization of neutrophils (automated hematology analyzer); details: monotherapy
Method: (§1) The dose of MGTA-145 was one of 0.0075 mg/kg, 0.015 mg/kg, 0.03 mg/kg, 0.075 mg/kg, 0.15 mg/kg, or 0.3 mg/kg. […] The dose of MGTA-145 was one of 0.015 mg/kg, 0.03 mg/kg, 0.075 mg/kg, or 0.15 mg/kg. […] The dose of MGTA-145 was one of 0.03 mg/kg or 0.075 mg/kg.
(§2) Mobilization of white blood cells (WBCs), neutrophils, lymphocytes, basophils, and eosinophils was quantified by automated hematology analyzer.

[7] = system: relative engraftment (CRU); assay: Primary and secondary transplantation of mobilized mouse cells at limit dilution (CRU); type: in vivo, mice; details: compared to the other cohorts
Source text: Mice (CD45.1) were mobilized according to the scheme shown in FIG. 24 and mobilized cells transplanted into CD45.2 mice at limit dilution.

[8] = system: white blood cells (WBCs); assay: Phase 1 clinical trial: mobilization of white blood cells (automated hematology analyzer); details: monotherapy
Method: as §1, §2

[9] = system: MMP-9; assay: Phase 1 clinical trial: plasma MMP-9 and TIMP-1 by sandwich immunoassay; type: in vivo, human; details: monotherapy, all six doses
Method: FIGS. 6A and 6B show the plasma levels of MMP-9 and molar ratio of MMP-9:TIMP-1, respectively, over the course of 24 hours following MGTA-145 monotherapy. MMP-9 is an enzyme involved in the breakdown of extracellular matrix and indicative of neutrophil migration whereas TIMP-1 blocks MMP-9 mediated migration. Therefore, an increase in MMP-9 or an increase in MMP-9:TIMP-1 ratio is indicative of increased neutrophil mobilization. […] The plasma levels of MMP-9 then decreased towards initial concentrations over the course of 24 hours.

[10] = target: T1, CXCR2 (Homo sapiens, UniProt P25025); assay: Phase 1 clinical trial: CXCR2 expression on peripheral blood neutrophils; type: in vivo
T1 construct: endogenous in cells; host or cells: peripheral blood neutrophils of trial subjects (in vivo dosing, ex vivo measurement)
T1 sequence (P25025 1-360): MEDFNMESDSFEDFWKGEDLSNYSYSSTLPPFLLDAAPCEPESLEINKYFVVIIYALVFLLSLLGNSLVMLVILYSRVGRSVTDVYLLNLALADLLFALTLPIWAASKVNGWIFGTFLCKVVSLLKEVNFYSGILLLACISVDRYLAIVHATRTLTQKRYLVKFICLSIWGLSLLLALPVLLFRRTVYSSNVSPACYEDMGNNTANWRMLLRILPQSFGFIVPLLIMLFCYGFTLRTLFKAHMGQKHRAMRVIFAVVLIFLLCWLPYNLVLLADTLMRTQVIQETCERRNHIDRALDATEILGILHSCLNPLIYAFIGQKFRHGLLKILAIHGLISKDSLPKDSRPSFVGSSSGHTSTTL
Method: Lines from bottom to top at 6 hrs post-administration represent 0.3 mg/kg, 0.15 mg/kg, 0.075 mg/kg, 0.03 mg/kg, 0.015 mg/kg, […], respectively.

[11] = system: neutrophil activation markers (L-selectin, CD11b, CD18, CD66); assay: Phase 1 clinical trial: neutrophil activation markers by flow cytometry; type: in vivo, human; details: monotherapy
Source text: G-CSF, the traditional therapy of choice for mobilization of neutrophils, enhances neutrophil activation, as measured by CD11b and CD18, but this has been identified to be problematic, for example, in patients with sickle cell disease where activated neutrophils adhere to the endothelium, thereby increasing the risk of severe and life-threatening complications such as vaso-occlusive crises. […] In contrast, the administration of MGTA-145 monotherapy (across all six doses) induces less than a 2-fold change relative to baseline for the neutrophil activation markers of CD11b and CD18.

[12] = system: neutrophil activation markers (L-selectin, CD11b, CD18, CD66); details: 5 days of G-CSF treatment, reported by Falanga et al., Blood 1999; cited from earlier work
[13] = G-CSF; Pulsiper et al. (2009) Blood; cited from earlier work
[14] = Part C, first day, combination (0.03 or […]) 8 patients, plerixafor alone
[15] = Part C, placebo + plerixafor on Day 2 (n=2)
[16] = Chen et al., 2019, plerixafor N = 50+, median yield of 2 LP
[17] = Devine et al, 2008, median yield of 1 LP, plerixafor N = 24, G-CSF N = 8
[18] = higher doses (0.075, 0.15, 0.3 mg/kg), 2 hours post administration
[19] = lower doses (0.0075, 0.015, 0.03 mg/kg), between 1 and 2 hours post administration
[20] = Part A monotherapy, the other doses
[21] = Part A, MGTA-145 on Day 1, 0.03 mg/kg (n=4)
[22] = Part A, MGTA-145 on Day 1, 0.3 mg/kg (n=4)
[23] = 78 healthy donors mobilized with G-CSF (Chaidos et al, Blood. 2012)
[24] = Chen et al., 2019, G-CSF N = 112+, 1 LP

Molecule: c1cc(CN2CCCNCCNCCCNCC2)ccc1CN1CCCNCCNCCCNCC1 [Plerixafor, 1,1′-[1,4-phenylenebis(methylene)]-bis-1,4,8,11-tetra-azacyclotetradecane]
- Patients with peak CD34+ ≥20 cells/μL [1]: 28%
- Patients with peak CD34+ ≥40 cells/μL [1]: 4%
- CD34+ AUC2-8h Median (range) ([2]; 2-8 hours post plerixafor dose, plerixafor alone): 102 (61-341)
- % ≥40/μL ([2]; Part B): 21% (3/16)
- Peak CD34+ (#/μL) Median (range) ([2]; Part B, plerixafor (placebo + plerixafor) on Day 1): 26 (13-78) #/μL
- Number of patients with peak CD34+ count of at least 20 cells per microliter [2, 14]: none
- Number of patients with peak CD34+ count of at least 40 cells per microliter [2, 14]: none
- Peak CD34+ (#/μL) Median (range) [2, 15]: 17 (12-22) #/μL
- Percent ≥20/μL [2, 15]: 50 (1/2) %
- Peak CD34+ (#/μL) Median (range) ([2]; Part C, plerixafor (placebo + plerixafor) on Day 1 (n=2)): 18 (16-20) #/μL
- % ≥40/μL ([2]; Part C, first day (n=2)): 0% (0/2)
- % ≥40/μL ([2]; Pooled B + C): 14% (2/14)
- Peak CD34+ (#/μL) Median (range) ([2]; Pooled B + C, plerixafor (placebo + plerixafor) on Day 1): 20 (13-78) #/μL and 23 (13-78) #/μL
- Peak CD34+/μL (FC vs. baseline) Median (range) ([2]; plerixafor alone): 15 (8-62) fold
- Tmax of peak CD34+ level Median (range) ([2]; plerixafor alone): 8 (3-12) h
- Patients with peak CD34+ ≥20 cells/μL ([2]; plerixafor alone (n=14)): 50%
- Patients with peak CD34+ ≥40 cells/μL ([2]; plerixafor alone (n=14)): 14%
- CD3+ in graft, Median (range) [3, 16]: 6.0 (2.7-13.0) ×10^8/kg
- CD4+ in graft, Median (range) [3, 16]: 3.6 (2.0-9.4) ×10^8/kg
- CD8+ in graft, Median (range) [3, 16]: 2.2 (0.5-5.0) ×10^8/kg
- CD19+ in graft, Median (range) [3, 16]: 1.5 (0.2-7.4) ×10^8/kg
- CD34+ in graft, Median (range) [3, 16]: 4.7 (0.9-9.6) ×10^6/kg
- CD56+ in graft, Median (range) [3, 16]: 0.4 (0.0-1.1) ×10^8/kg
- CD3+ in graft, Median (range) [3, 17]: 4.6 (1.5-7.8) ×10^8/kg
- CD4+ in graft, Median (range) [3, 17]: 3.2 (1-5.7) ×10^8/kg
- CD8+ in graft, Median (range) [3, 17]: 1.3 (0.4-3.4) ×10^8/kg
- CD34+ in graft, Median (range) [3, 17]: 2.9 (1.2-6.3) ×10^6/kg
- CD56+ in graft, Median (range) [3, 17]: 0.3 (0.1-1.0) ×10^8/kg
- CD19+ in graft, Median (range) ([3]; Devine et al, 2008, median yield of 1 LP, plerixafor N = 24): 1.0 (0.2-2.4) ×10^8/kg
- CD34+CD90+CD45RA− cells, median peak ([4]; plerixafor alone): 8 cells/μL

Molecule: Gro-β T N65D: Gro-β T with aspartic acid in place of asparagine at position 65, SEQ ID NO: 4 [reference compound]
- Potency (hematopoietic stem and progenitor cell mobilization) relative to Gro-β T ([5]; described in U.S. Pat. No. 6,447,766): substantially greater than that of Gro-β T

Molecule: MGTA-145: CXCR2 agonist; truncated Gro-β with deletion of the first four N-terminal amino acids (SEQ ID NO: 2)
- Initial plateau of neutrophil mobilization [6, 18]: 5-8 ×10^3 cells/μL
- Peak mobilization of neutrophils [6, 19]: 13-15 ×10^3 cells/μL
- Engraftment rates, secondary transplantation [7]: vastly improved engraftment rates
- Initial plateau of WBC mobilization [8, 18]: 6-10 ×10^3 cells/μL
- Peak mobilization of WBCs [8, 19]: 15-17 ×10^3 cells/μL
- Fold increase of CD34+ cells ([2]; Part A monotherapy, 0.03 mg/kg): 7 fold
- Peak concentration of CD34+ cells ([2]; Part A monotherapy, 0.03 mg/kg): ~10 cells/μL
- Time of peak CD34+ mobilization post administration ([2]; Part A monotherapy, across the six doses (0.0075-0.3 mg/kg)): about 30 minutes
- Fold increase of CD34+ cells [2, 20]: 2-3 fold
- Peak concentration of CD34+ cells ([2]; Part A monotherapy, the other doses (0.0075, 0.015, 0.075, 0.15, 0.3 mg/kg)): ~5 cells/μL
- Peak CD34+ (#/μL) Median (range) [2, 21]: 12 (2-19) #/μL
- Percent ≥20/μL [2, 21]: 0 (0/4) %
- Peak CD34+ (#/μL) Median (range) [2, 22]: 3 (3-13) #/μL
- Percent ≥20/μL [2, 22]: 0 (0/4) %
- Molar ratio of MMP-9:TIMP-1 [9]: rapid increase 30 minutes post-administration
- Plasma levels of MMP-9 [9]: increased sharply within 30 minutes post-administration
- Time of peak CD34+CD90+CD45RA− mobilization post administration ([4]; Part A monotherapy): 30 min
- Fold increase of CD34+CD90+CD45RA− cells ([4]; Part A monotherapy, 0.03 mg/kg): ~8.3 fold
- Peak concentration of CD34+CD90+CD45RA− cells ([4]; Part A monotherapy, 0.03 mg/kg): ~3 cells/μL
- Fold increase of CD34+CD90+CD45RA− cells [4, 20]: 2-3.5 fold
- Peak concentration of CD34+CD90+CD45RA− cells [4, 20]: 1-1.6 cells/μL
- CXCR2 expression recovery prior to the second dose ([10]; 0.07 mg/kg, staggered dosing, two consecutive days): ~80 % of baseline
- CXCR2 on peripheral blood neutrophils ([10]; monotherapy, followed by recovery over 24 hours): rapid downregulation
- Fold change relative to baseline, CD66 ([11]; all doses except the highest (0.3 mg/kg)): < 2 fold
- Fold change relative to baseline, CD11b and CD18 ([11]; all six doses): < 2 fold
- Fold change relative to baseline, L-selectin ([11]; all six doses): < 2 fold
- Potency to induce hematopoietic stem and progenitor cell mobilization relative to Gro-β ([5]; described in U.S. Pat. No. 6,080,398): superior to that of Gro-β by multiple orders of magnitude

B1: G-CSF: Filgrastim (G-CSF), most common clinical hematopoietic stem cell mobilization protocol, five days (protein, UniProt P09919 31-207, looked up)
Granulocyte …: TPLGPASSLPQSFLLKCLEQVRKIQGDGAALQEKLVSECATYKLCHPEELVLLGHSLGIPWAPLSSCPSQALQLAGCLSQLHSGLFLYQGLLQALEGISPELGPTLDTLQLDVADFATTIWQQMEELGMAPALQPTQGAMPAFASAFQRRAGGVLVASHLQSFLEVSYRVLRHLAQP
modifications: filgrastim
- TNC/kg donor weight, Median (range) ([3]; 40 healthy donors mobilized with G-CSF (Singhal et al, BMT. 2000)): 7.2 (3.2-14.0) ×10^8 cells
- Frequency of CD3+ T cells in graft, Median (range) [3, 23]: 45.3 (21.8-75.4) % of CD45+
- Frequency of CD4+ T cells in graft, Median (range) [3, 23]: 29.8 (12.6-56.5) % of CD45+
- Frequency of CD8+ T cells in graft, Median (range) [3, 23]: 11.8 (4.1-29.2) % of CD45+
- Frequency of CD19+ B cells in graft, Median (range) [3, 23]: 10.5 (0.9-34.8) % of CD45+
- Frequency of CD56+ NK cells in graft, Median (range) [3, 23]: 3.2 (0.5-18.4) % of CD45+
- Frequency of Tregs in graft, Median (range) [3, 23]: 3.5 (0.9-8.2) % of CD4+ T cells
- Frequency of iNKT cells in graft, Median (range) [3, 23]: 0.04 (0.00-1.07) % of CD3+
- CD3+ in graft, Median [3, 24]: 2.5e+08 kg⁻¹
- CD4+ in graft, Median [3, 24]: 1.5e+08 kg⁻¹
- CD8+ in graft, Median [3, 24]: 7e+07 kg⁻¹
- CD19+ in graft, Median [3, 24]: 5e+07 kg⁻¹
- CD34+ in graft, Median [3, 24]: 4.2e+06 kg⁻¹
- CD56+ in graft, Median [3, 24]: 1e+07 kg⁻¹
- CD3+ in graft, Median (range) [3, 17]: 1.3 (1.2-6.8) ×10^8/kg
- CD4+ in graft, Median (range) [3, 17]: 1.1 (0.7-3.2) ×10^8/kg
- CD8+ in graft, Median (range) [3, 17]: 0.4 (0.3-3.4) ×10^8/kg
- CD34+ in graft, Median (range) [3, 17]: 4.2 (2.5-18.7) ×10^6/kg
- CD56+ in graft, Median (range) [3, 17]: 0.2 (0.1-0.5) ×10^8/kg
- Fold increase in neutrophil activation markers [12]: ~2.7 fold
- Tolerability [13]: Majority with bone pain,
